Values joined by “and” are separate entries in the source; they are usually repeats but may differ in a detail not shown here. Equal entries are not always repeated. “Also recorded” adds a separate entry of the source. Where two headings read alike, the source gives them in different places.
Key:
[1] = system: P2Y receptor (aorta endothelium); test: Relaxation of noradrenalin-contracted rabbit aorta; details: for relaxation pD2, aorta: rabbit aorta, log molar units
[2] = molecular target: T1, P2Y receptor (turkey erythrocyte membranes) (Meleagris gallopavo, UniProt P49652); test: Stimulation of phospholipase C (inositol phosphate formation) in turkey erythrocyte membranes; type: biochemical
T1 construct: from tissue; host or cells: washed turkey erythrocytes, ghosts prepared by hypotonic lysis
Experimental: Phospholipase C activity: Stimulation of inositol phosphate formation by compounds of the present invention was measured in turkey erythrocyte membranes as described by Harden et al., supra and Boyer et al., supra. The K0.5 values were averaged from 3-8 independently determined dose-response curves for each compound. Briefly, one ml of washed turkey erythrocytes was incubated in inositol-free medium (DMEM; Gibco) with 0.5-1 mCi of 2-[^3 H]myoinositol (20 Ci/mmol; American Radiolabeled Chemicals Inc., St. Louis, Mo.)for 18-24 h in a humidified atmosphere of 95% air 5% CO2 at 37° C. Erythrocyte ghosts were prepared by rapid lysis in hypotonic buffer (5 mM sodium phosphate, pH 7.4, 5 mM MgCl2, 1 mM EGTA) as described by Boyer et al., supra. Phospholipase C activity was measured in 25 μl of [^3 H]inositol-labeled ghosts (≈175 μg of protein, 200-500,000 cpm/assay) in a medium containing 424 μM CaC12, 0.91 mM MgSO4, 2 mM EGTA, 115 mM KCl, 5 mM KH2 PO4, and 10 mM Hepes, pH 7.0. Assay (100 μl or 200 μl final volume) contained 1 μM GTPγS and the indicated concentrations of nucleotide analogs. Ghosts were incubated at 30° C. for 5 min, and total [^3 H]inositol phosphates were quantitated after purification by anion exchange chromatography according to Harden et al. (supra) and Boyer et al. (supra).
(§1) Phospholipase C activity and muscle relaxation/contraction effects were assessed using the methods recited in Example 3. In FIGS. 10-12, which present the result of assays of phospholipase C activity in turkey erythrocyte membranes, the x-axis is marked in units of the log of the molar concentration of the putative P2Y receptor agonist tested and the y-axis is marked in units of the percentage of maximum production of [^3 H]-inositol phosphate generated. In FIG. 13, the x-axis is marked in units of the negative log of the molar concentration of applied putative P2Y receptor agonists and the y-axis is marked in units of the percentage relaxation of the 50 nM carbachol-induced contraction of guinea pig taenia coli. In FIG. 14, the x-axis is also marked in units of the negative log of the molar concentration of applied putative P2Y receptor agonists and the y-axis is marked in units of the percentage relaxation of the 1 μM noradrenalin-induced contraction of rabbit aorta endothelium. In FIGS. 15-16, the x-axis is marked in units of the negative log of the molar concentration of applied putative p^2X receptor agonists and the y-axis is marked in units of the percentage contraction relative to a standard dose of KCl (i.e., 60 mM), as assessed in guinea pig isolated urinary bladder detrussor muscle (FIG. 15) and guinea pig isolated vas deferens (FIG. 16).

[3] = molecular target: T2, adenylyl cyclase linked P2Y receptor (C6 rat glioma cells) (Rattus norvegicus, UniProt Q9EPX4); test: Inhibition of adenylyl cyclase in C6 rat glioma cells; type: cell-based; details: for selectivity for the adenylyl cyclase linked (C6 cell) receptor: versus phospholipase C linked turkey erythrocyte receptor; for IC50: C6 rat glioma cells, 10 μM isoproterenol, read-out: K0.5 values (in nM) for inhibition of adenylyl cyclase in C6 cells; for selectivity for the adenylyl cyclase linked receptor, in words: versus phospholipase C linked receptor
T2 construct: endogenous in cells; host or cells: C6 rat glioma cells
Experimental: This example illustrates the inhibition of adenylyl cyclase activity in C6 rat glioma cells, as a function of the presence of certain ATP analogs in the medium in which the C6 cells were cultured.
Cells were labelled by incubation for 2 hours in the presence of 1 to 2 mCi of tritiated adenine/ml in the medium. Cells were washed twice with HEPES (20 mM, pH 7.5)-buffered Eagle's medium and then preincubated for 10 minutes at 37° C. with fresh medium containing 200 μM 3-isobutyl-1-methylxanthine. Agonist incubations were initiated by the simultaneous addition of 10 μM isoproterenol and various concentrations of nucleotides. The reactions were stopped after 10 minutes of aspiration of the nucleotide-containing medium and addition of 1 ml of ice-cold 5% trichloroacetic acid.

[4] = molecular target: T3, P2X receptor (vas deferens) (Cavia porcellus, UniProt A0A286XVA9); test: Contraction of guinea pig isolated vas deferens
T3 sequence (A0A286XVA9 1-399): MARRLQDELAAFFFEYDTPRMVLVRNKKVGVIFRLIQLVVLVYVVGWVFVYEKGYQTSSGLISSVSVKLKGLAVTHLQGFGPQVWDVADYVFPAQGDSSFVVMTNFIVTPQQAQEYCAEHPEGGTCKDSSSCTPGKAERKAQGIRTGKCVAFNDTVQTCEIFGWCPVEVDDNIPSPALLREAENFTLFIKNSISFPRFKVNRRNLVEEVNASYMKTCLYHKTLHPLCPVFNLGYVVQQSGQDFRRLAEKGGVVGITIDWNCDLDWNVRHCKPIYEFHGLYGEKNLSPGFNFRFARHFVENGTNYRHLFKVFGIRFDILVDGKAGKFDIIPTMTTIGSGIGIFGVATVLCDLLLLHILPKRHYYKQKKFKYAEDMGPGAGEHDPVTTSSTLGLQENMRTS

[5] = molecular target: T4, P2X receptor (urinary bladder) (Cavia porcellus, UniProt A0A286XVA9); test: Contraction of guinea pig isolated urinary bladder detrussor muscle; details: guinea pig urinary bladder
T4 construct: guinea pig isolated urinary bladder detrussor muscle; from tissue; host or cells: guinea pig isolated urinary bladder detrusor muscle

[6] = molecular target: T5, P2Y receptor (taenia coli) (Cavia porcellus, UniProt P59902); test: Relaxation of carbachol-contracted guinea pig taenia coli; details: for activity/potency in words, taenia coli: guinea pig taenia coli
T5 construct: Relaxant responses mediated via P2Y receptors were examined in guinea pig taenia coli; from tissue; host or cells: guinea pig taenia coli (carbachol-contracted)
Excerpt: (§2) Muscular relaxation/contraction: Relaxant responses mediated via P2Y receptors were examined in guinea pig taenia coli, rabbit aorta, and rabbit mesenteric artery, as described by Hoyle et al. (Br. J. Pharmacol., 107, 367-374 (1992a)), Burnstock et al., (Br. J. Pharmacol., 90, 383-391 (1987a)), and Rubino et al., (Eur. J. Pharmacol., 212, 237-240 (1992)). Contractile responses mediated via P2X receptors were examined in the guinea pig urinary bladder and vas deferens, and rabbit saphenous artery, also using standard methods (see Hoyle et al., supra., 1992; Hoyle et al., Br. J. Pharmacol., 99, 617-621 (1990); and Burnstock et al., Br. J. Pharmacol., 90, 111-120 (1987b)).
Muscular relaxation assays were performed as recited in Example 3. […] All curves are the mean of two determinations except for 5'-ATP (n=38), 2-hexylthio-ATP (n=4), 2-(5-hexenyl)thio-ATP (n=3), and 2-(2-4-nitrophenylethyl)thio-AMP (n=5). […] The pD2 value for 2-methylthio-ATP is 8.0±0.15, as reported by Hoyle et al., in Receptor Data for Biological Experiments, (H. N. Doods and J. C. A. Van Meel, eds., 1992b) at pp. 54-61.
as §1

[7] = molecular target: P2Y receptor (mesenteric artery); test: Relaxation of rabbit mesenteric artery; details: for relaxation pD2, mes. artery: log molar units
[8] = molecular target: T6, P2X receptor (saphenous artery) (Oryctolagus cuniculus, UniProt G1U3D6); test: Contraction of rabbit saphenous artery; details: rabbit saphenous artery
T6 construct: and rabbit saphenous artery; from tissue; host or cells: rabbit saphenous artery
T6 sequence (G1U3D6 1-399): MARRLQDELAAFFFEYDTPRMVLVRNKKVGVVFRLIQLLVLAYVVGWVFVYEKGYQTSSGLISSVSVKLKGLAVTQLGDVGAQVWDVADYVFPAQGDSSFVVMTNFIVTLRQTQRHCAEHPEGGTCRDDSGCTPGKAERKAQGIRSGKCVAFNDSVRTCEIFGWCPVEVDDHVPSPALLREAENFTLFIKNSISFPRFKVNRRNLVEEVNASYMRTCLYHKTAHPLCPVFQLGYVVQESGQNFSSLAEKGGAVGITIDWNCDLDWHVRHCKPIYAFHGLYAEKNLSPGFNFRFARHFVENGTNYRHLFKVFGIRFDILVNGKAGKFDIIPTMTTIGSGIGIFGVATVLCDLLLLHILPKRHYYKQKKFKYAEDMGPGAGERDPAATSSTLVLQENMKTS
Excerpt: as §2
^c For the saphenous artery, the percentages in brackets are response
at 10 μM relative to the contraction produced by 1 μM α,MeATP
ATP in this assay is very weak (EC50 =
1.78 mM). The highest concentrations of the analogues tested were 3-30

[9] = turkey erythrocyte membranes, mean ± S.E.M. for at least 2 determinations, read-out: phosphatidyl inositol metabolism (K0.5, nM) erythrocyte
[10] = turkey erythrocyte membranes, read-out: K0.5

T2 sequence (Q9EPX4 whole entry): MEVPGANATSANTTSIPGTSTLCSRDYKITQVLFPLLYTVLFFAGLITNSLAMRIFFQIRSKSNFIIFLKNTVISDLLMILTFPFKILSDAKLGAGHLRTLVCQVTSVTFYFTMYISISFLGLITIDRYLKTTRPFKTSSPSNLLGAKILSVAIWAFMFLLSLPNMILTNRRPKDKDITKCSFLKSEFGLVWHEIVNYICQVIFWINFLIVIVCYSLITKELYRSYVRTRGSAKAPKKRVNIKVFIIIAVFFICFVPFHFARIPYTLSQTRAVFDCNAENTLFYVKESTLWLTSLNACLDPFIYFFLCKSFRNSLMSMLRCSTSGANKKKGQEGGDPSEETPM
T1 sequence (P49652 whole entry): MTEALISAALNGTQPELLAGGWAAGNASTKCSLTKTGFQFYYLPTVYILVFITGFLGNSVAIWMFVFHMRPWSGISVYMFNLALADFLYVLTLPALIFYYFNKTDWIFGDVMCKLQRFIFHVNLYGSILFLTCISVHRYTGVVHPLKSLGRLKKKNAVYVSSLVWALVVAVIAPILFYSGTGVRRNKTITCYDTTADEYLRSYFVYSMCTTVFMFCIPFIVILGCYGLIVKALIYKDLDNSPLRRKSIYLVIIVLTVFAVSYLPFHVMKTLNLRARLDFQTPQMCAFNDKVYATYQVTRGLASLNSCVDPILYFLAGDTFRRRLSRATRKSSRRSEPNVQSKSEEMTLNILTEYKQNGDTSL
T5 sequence (P59902 whole entry): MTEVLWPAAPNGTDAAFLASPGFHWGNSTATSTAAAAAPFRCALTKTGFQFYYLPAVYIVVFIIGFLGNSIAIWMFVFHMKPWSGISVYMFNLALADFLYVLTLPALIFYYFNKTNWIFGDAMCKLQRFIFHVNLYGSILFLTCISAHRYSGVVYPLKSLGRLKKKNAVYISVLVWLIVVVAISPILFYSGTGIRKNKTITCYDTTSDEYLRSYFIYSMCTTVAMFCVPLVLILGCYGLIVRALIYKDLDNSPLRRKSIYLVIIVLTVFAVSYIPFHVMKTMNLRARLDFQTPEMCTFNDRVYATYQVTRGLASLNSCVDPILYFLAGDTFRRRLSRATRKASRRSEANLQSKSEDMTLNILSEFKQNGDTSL

Compound | relaxation pD2, aorta [1] | EC50 ([2]; K0.5, turkey erythrocyte membranes, read from graph) | fold less potent than ATP, turkey erythrocyte ([2]; relative to ATP) | EC50 [2, 9] | selectivity for the adenylyl cyclase linked (C6 cell) receptor [3] | activity/potency in words, vas deferens [4] | activity/potency in words, bladder [5] | activity/potency in words, taenia coli [6] | relaxation pD2, mes. artery [7] | activity/potency in words, turkey erythrocyte ([2]; turkey erythrocyte membranes) | EC50 [2, 10] | IC50 [3] | selectivity for the adenylyl cyclase linked receptor, in words [3] | EC50 [6] | activation at 10 µM ([8]; 10 μM, read-out: response at 10 μM relative to the contraction produced by 1 μM α,MeATP, saph. artery) | fold less potent than the corresponding triphosphate, turkey erythrocyte ([2]; relative to corresponding triphosphate) | activity/potency/selectivity in words, aorta ([1]; rabbit aorta endothelial P2Y receptor) | activity/potency in words, mesenteric artery ([7]; listed as 3'-Acetylamino-3'-deoxy-ATP) | activity/potency in words, mesenteric artery ([7]; listed as 3'-acetylamino-3'-deoxy-ATP) | activity/potency in words, saphenous artery [8]
Nc1ncnc2c1ncn2[C@@H]1O[C@H](COP(=O)(O)OP(=O)(O)O)[C@@H](O)[C@H]1O [ADP, adenosine 5'-diphosphate, reference compound] | 5.2 | 3160 nM | 3 -fold | 8000 ± 2000 nM | 120 -fold | less potent than ATP | equipotent with ATP | equipotent to ATP | 5.2 | – | – | – | – | – | – | – | – | – | – | –
Nc1nc(SCCc2ccc([N+](=O)[O-])cc2)nc2c1ncn2[C@@H]1O[C@H](COP(=O)(O)OP(=O)(O)OP(=O)(O)O)[C@@H](O)[C@H]1O [2-(2-p-Nitrophenylethyl)-thio-ATP, 2[2-(p-Nitrophen)ethylthio]adenosine 5'-triphosphate] | 6.2 | – | – | 12 ± 4 nM | – | – | – | – | 7.0 | at least two orders of magnitude more potent | 5 to 30 nM | 1 ± 0.4 nM | only moderate selectivity for C6 cell receptors | 31.6 nM | 2.6% | – | – | – | – | –
C=CCCCCSc1nc(N)c2ncn([C@@H]3O[C@H](COP(=O)(O)OP(=O)(O)O)[C@@H](O)[C@H]3O)c2n1 [2-(5-Hexenyl)thio-ADP, 2-(5-hexenylthio)-adenosine 5'-diphosphate] | – | – | – | 6.8 ± 3 nM | – | – | – | – | – | – | 4 nM | 0.07 ± 0.02 nM | approximately the same degree of selectivity | 3.63 nM | – | – | – | – | – | –
C=CCCCCSc1nc(N)c2ncn([C@@H]3O[C@H](COP(=O)(O)O)[C@@H](O)[C@H]3O)c2n1 [2-(5-Hexenyl)thio-AMP, 2-(5-hexenylthio)adenosine 5'-monophosphate] | 7.0 | – | – | 328 ± 43 nM | – | – | – | – | 6.3 | – | – | 2 ± 0.18 nM | – | 1000 nM | – | 33 -fold | – | – | – | –
CC(=O)N[C@H]1[C@@H](O)[C@H](n2cnc3c(N)ncnc32)O[C@@H]1COP(=O)(O)OP(=O)(O)OP(=O)(O)O [3'-Acetylamino-3'deoxy-ATP, 3'-Acetylamino-3'-deoxyadenosine 5'-triphosphate] | – | – | – | > 100000 nM | – | more or less as potent as ATP; also recorded: active in the vas deferens and urinary bladder | more or less as potent as ATP; also recorded: active in the vas deferens and urinary bladder | nearly inactive | – | nearly inactive | – | – | – | – | – | – | inactive at 10 μM at rabbit aorta P2Y receptors | more potent than ATP at rabbit mesenteric artery P2Y receptors | the only P2Y receptor which had any appreciable activity was that in the rabbit mesenteric artery | inactive in the saphenous artery
CCCCCCSc1nc(N)c2ncn([C@@H]3O[C@H](COP(=O)(O)OP(=O)(O)OP(=O)(O)O)[C@@H](O)[C@H]3O)c2n1 [2-Hexylthio-ATP, 2-hexylthio-ATP] | 6.7 | – | – | 5 ± 1 nM | 170 -fold | – | – | significantly more potent than ATP itself, at least by one order of magnitude | 6.7 | at least two orders of magnitude more potent | 5 to 30 nM | 0.03 ± 0.005 nM | – | 31.6 nM | – | – | – | – | – | –
C=CCCCCSc1nc(N)c2ncn([C@@H]3O[C@H](COP(=O)(O)OP(=O)(O)OP(=O)(O)O)[C@@H](O)[C@H]3O)c2n1 [2-(S-Hexenyl)thio-ATP, 2-(5-hexenylthio)adenosine 5'-triphosphate] | – | – | – | 10 ± 4 nM | – | – | – | significantly more potent than ATP itself, at least by one order of magnitude | 7.0 | at least two orders of magnitude more potent | 5 to 30 nM and 10 nM | 0.12 ± 0.06 nM | – | 12.6 nM | – | – | – | – | – | –

Reference: patent US5620676A, “Biologically active ATP analogs” (priority 1995, dated 1997)
